Measured values: patent US4575497A, “3, 3", 4"-Tri-O-acylspiramycin I” (Kyowa Hakko Kogyo Co., Ltd, priority 1983, dated 1986)

Experiments:
[1] = background literature, in words; cited from earlier work
[2] = tested on: Streptococcus pneumoniae Type III; test: Healing effect on test infection in mice, ED50 (Reference Example 1); assay type: in vivo; details: oral, 0.3% CMC, just after i.p. inoculation; Probit method, survived animals on the 7th day
Source text: Comparison of healing effects of acetylspiramycin and 3, 3", 4"-tri-O-acetylspiramycin I on test infection in mice
Animal : ddY-strain male mice, 19±lg, one group consisting of ten mice.
Test bacterium : Streptococcus pneumoniae Type III. Inoculation rate : 1.1×10^2 cfu/mouse.
The predetermined amount of the precultured test bacteria was inoculated via i.p..
Medicament administration : Each of the medicaments was suspended in 0.3% CMC, and orally administered just after the inoculation of bacteria.

Bacillus cereus KB143 = test: MIC against Bacillus cereus KB143 (D); assay type: cell-based; details: Heart infusion agar (pH 7.0)
Source text: (§1) The minimum inhibitory concentration (MIC) of Compound (I) is shown in Table 4 in comparison with that of spiramycin I.
(§2) Minimum inhibitory concentration (MIC, μ g/ml)
(§3) Remark: medium used: Heart infusion agar (pH 7.0)
D: Bacillus cereus KB143

[3] = tested on: Staphylococcus aureus KB199; test: MIC against Staphylococcus aureus KB199 (B); assay type: cell-based; details: Heart infusion agar (pH 7.0)
Source text: as §1, §2, §3
B: Staphylococcus aureus KB199

Escherichia coli KB213 = test: MIC against Escherichia coli KB213 (F); assay type: cell-based; details: Heart infusion agar (pH 7.0)
Source text: as §1, §2, §3
F: Escherichia coli KB213

[4] = tested on: Streptococcus pneumoniae Type III; test: Infection-healing effect, mice protection test (Test Example); assay type: in vivo; details: for Number of survived mice out of 10 mice: 60 mg/kg in 0.3% CMC, orally just after i.p. inoculation (1.1×10^2 cfu/mouse), 7th day; for therapeutic effect in an infection-healing test in mice: Streptococcus pneumoniae Type III, compared with acetylspiramycin and 3, 3", 4"-tri-O-acetylspiramycin I
Protocol: A test example of the therapeutic effect of Compound (I) in experimental test mice protection test will be given below:
Animal: ddY-strain male mice, 19±lg, one group consisting of ten mice.
Test bacterium: Streptococcus pneumoniae Type III, Inoculation rate: 1.1×10^2 cfu/mouse.
The predetermined amount of the precultured test bacteria was inoculated via i.p.
Medicament administration: 60 mg/kg of each of the medicaments was suspended in 0.3% CMC, and orally administered just after the inoculation of bacteria.

Micrococcus ruteus KB212 = test: MIC against Micrococcus ruteus KB212 (E); assay type: cell-based; details: Heart infusion agar (pH 7.0)
Source text: as §1, §2, §3
E: Micrococcus ruteus KB212

[5] = tested on: Staphylococcus aureus KB210; test: MIC against Staphylococcus aureus KB210 (A); assay type: cell-based; details: Heart infusion agar (pH 7.0)
Source text: as §1, §2, §3
A: Staphylococcus aureus KB210

[6] = tested on: Klebsiella pneumoniae KB214; test: MIC against Klebsiella pneumoniae KB214 (G); assay type: cell-based; details: Heart infusion agar (pH 7.0)
Source text: as §1, §2, §3
G: Klebsiella pneumoniae KB214

Bacillus subtilis KB211 = test: MIC against Bacillus subtilis KB211 (C); assay type: cell-based; details: Heart infusion agar (pH 7.0)
Source text: as §1, §2, §3
C: Bacillus subtilis KB211

Row | Molecule | in vivo activity compared with starting compounds [1] | ED50 [2] [mg/kg] | Minimum inhibitory concentration (MIC) (Bacillus cereus KB143) [μ g/ml] | Minimum inhibitory concentration (MIC) [3] [μ g/ml] | Minimum inhibitory concentration (MIC) (Escherichia coli KB213) [μ g/ml] | Number of survived mice out of 10 mice [4] | Minimum inhibitory concentration (MIC) (Micrococcus ruteus KB212) [μ g/ml] | Minimum inhibitory concentration (MIC) [5] [μ g/ml] | Minimum inhibitory concentration (MIC) [6] [μ g/ml] | Minimum inhibitory concentration (MIC) (Bacillus subtilis KB211) [μ g/ml] | therapeutic effect in an infection-healing test in mice [4]
1 | 3", 9-di-O-acetyl compound of midecamycin | better in vivo activity |  |  |  |  |  |  |  |  |  | 
2 | CCCC(=O)O[C@H]1[C@H](C)O[C@@H](O[C@H]2[C@H](N(C)C)[C@@H](O)[C@H](O[C@H]3[C@@H](CC=O)C[C@@H](C)[C@@H](O)/C=C/C=C/C[C@@H](C)OC(=O)C[C@@H](O)[C@@H]3OC)O[C@@H]2C)C[C@@]1(C)OC(=O)CC [3"-O-propionyl compound of leucomycin A5] | better in vivo activity |  |  |  |  |  |  |  |  |  | 
3 | COC1C(OC(C)=O)CC(=O)OC(C)CC=CC=CC(OC2CCC(N(C)C)C(C)O2)C(C)CC(CC=O)C1OC1OC(C)C(OC2CC(C)(OC(C)=O)C(OC(C)=O)C(C)O2)C(N(C)C)C1O (stereo not drawn) [3, 3", 4"-tri-O-acetylspiramycin, 3, 3", 4"-tri-O-acetylspiramycin I] |  | 69.5 |  |  |  |  |  |  |  |  | 
4 | CCC(=O)OC1C(C)OC(OC2C(C)OC(OC3C(CC=O)CC(C)C(OC4CCC(N(C)C)C(C)O4)C=CC=CCC(C)OC(=O)CC(OC(C)=O)C3OC)C(O)C2N(C)C)CC1(C)OC(C)=O (stereo not drawn) [Compound 1, 3, 3"-di-O-acetyl-4"-O-propionylspiramycin I] |  |  | 3.12 | > 100 | > 100 | 5 mice out of 10 mice | < 0.1 | 3.12 | > 100 | 1.56 | 
5 | CCCC(=O)OC1C(C)OC(OC2C(C)OC(OC3C(CC=O)CC(C)C(OC4CCC(N(C)C)C(C)O4)C=CC=CCC(C)OC(=O)CC(OC(C)=O)C3OC)C(O)C2N(C)C)CC1(C)OC(C)=O (stereo not drawn) [Compound 2, 3, 3"-di-O-acetyl-4"-O-butyrylspiramycin I] |  |  | 1.56 | > 100 | > 100 | 5 mice out of 10 mice | < 0.1 | 1.56 | 100 | 1.56 | 
6 | CCC(=O)OC1CC(=O)OC(C)CC=CC=CC(OC2CCC(N(C)C)C(C)O2)C(C)CC(CC=O)C(OC2OC(C)C(OC3CC(C)(OC(=O)CC)C(OC(C)=O)C(C)O3)C(N(C)C)C2O)C1OC (stereo not drawn) [Compound 3, 3,3"-di-O-propionyl-4"-O-acetylspiramycin I] |  |  | 3.12 | > 100 | > 100 | 5 mice out of 10 mice | < 0.1 | 3.12 | > 100 | 3.12 | 
7 | CCC(=O)OC1CC(=O)OC(C)CC=CC=CC(OC2CCC(N(C)C)C(C)O2)C(C)CC(CC=O)C(OC2OC(C)C(OC3CC(C)(OC(=O)CC)C(OC(=O)CC)C(C)O3)C(N(C)C)C2O)C1OC (stereo not drawn) [Compound 4, 3, 3", 4"-tri-O-propionylspiramycin I] |  |  | 1.56 | > 100 | > 100 | 10 mice out of 10 mice | < 0.1 | 1.56 | > 100 | 1.56 | more excellent therapeutic effect than acetylspiramycin and 3, 3", 4"-tri-O-acetylspiramycin I
8 | CCC(=O)OC1(C)CC(OC2C(C)OC(OC3C(CC=O)CC(C)C(OC4CCC(N(C)C)C(C)O4)C=CC=CCC(C)OC(=O)CC(OC(C)=O)C3OC)C(O)C2N(C)C)OC(C)C1OC(C)=O (stereo not drawn) [Compound 5, 3, 4"-di-O-acetyl-3"-O-propionylspiramycin I] |  |  | 1.56 | > 100 | > 100 | 3 mice out of 10 mice | < 0.1 | 3.12 | > 100 | 3.12 | 
9 | CCCC(=O)OC1(C)CC(OC2C(C)OC(OC3C(CC=O)CC(C)C(OC4CCC(N(C)C)C(C)O4)C=CC=CCC(C)OC(=O)CC(OC(C)=O)C3OC)C(O)C2N(C)C)OC(C)C1OC(C)=O (stereo not drawn) [Compound 6, 3, 4"-di-O-acetyl-3"-O-butyrylspiramycin I] |  |  | 1.56 | > 100 | > 100 | 10 mice out of 10 mice | 0.2 | 6.25 | > 100 | 3.12 | more excellent therapeutic effect than acetylspiramycin and 3, 3", 4"-tri-O-acetylspiramycin I
10 | CCCC(=O)OC1(C)CC(OC2C(C)OC(OC3C(CC=O)CC(C)C(OC4CCC(N(C)C)C(C)O4)C=CC=CCC(C)OC(=O)CC(OC(=O)CC)C3OC)C(O)C2N(C)C)OC(C)C1OC(=O)CC (stereo not drawn) [Compound 7, 3, 4"-di-O-propionyl-3"-O-butyrylspiramycin I] |  |  | 1.56 | > 100 | > 100 | 5 mice out of 10 mice | < 0.1 | 3.12 | > 100 | 1.56 | 
11 | CCC(=O)OC1CC(=O)OC(C)CC=CC=CC(OC2CCC(N(C)C)C(C)O2)C(C)CC(CC=O)C(OC2OC(C)C(OC3CC(C)(OC(C)=O)C(OC(=O)CC)C(C)O3)C(N(C)C)C2O)C1OC (stereo not drawn) [Compound 8, 3"-O-acetyl-3, 4"-di-O-propionylspiramycin I] |  |  | 3.12 | > 100 | > 100 | 10 mice out of 10 mice | 0.2 | 3.12 | > 100 | 3.12 | more excellent therapeutic effect than acetylspiramycin and 3, 3", 4"-tri-O-acetylspiramycin I
12 | CCCC(=O)OC1C(C)OC(OC2C(C)OC(OC3C(CC=O)CC(C)C(OC4CCC(N(C)C)C(C)O4)C=CC=CCC(C)OC(=O)CC(OC(=O)CC)C3OC)C(O)C2N(C)C)CC1(C)OC(=O)CC (stereo not drawn) [Compound 9, 3, 3"-di-O-propionyl-4"-O-butyrylspiramycin I] |  |  | 3.12 | > 100 | > 100 | 8 mice out of 10 mice | 0.2 | 3.12 | > 100 | 3.12 | more excellent therapeutic effect than acetylspiramycin and 3, 3", 4"-tri-O-acetylspiramycin I
13 | CO[C@@H]1[C@@H](O[C@@H]2O[C@H](C)[C@@H](O[C@H]3C[C@@](C)(O)[C@@H](O)[C@H](C)O3)[C@H](N(C)C)[C@H]2O)[C@@H](CC=O)C[C@@H](C)[C@@H](O[C@H]2CC[C@H](N(C)C)[C@@H](C)O2)/C=C/C=C/C[C@@H](C)OC(=O)C[C@H]1O [SPMI, Spiramycin I] |  |  | 1.56 | > 100 | 100 | 0 mice out of 10 mice | < 0.1 | 1.56 | 100 | 0.78 | 
